In the supplement of paper PMC8967900:

How the values were obtained:
Assay in all cases: selective drug sensitivity score (sDSS, relative to normal bone marrow) (sDSS (score)); higher = more potent and effective on the cell line relative to normal bone marrow cells
Settings in all cases: 72 h
380 = system: 380
697 = system: 697
ALL-PO = system: ALL-PO
COG-LL-317 = system: COG-LL-317
COG-LL-319h = system: COG-LL-319h
COG-LL-355h = system: COG-LL-355h
HPB-ALL = system: HPB-ALL
KARPAS-45 = system: KARPAS-45
KASUMI-10 = system: KASUMI-10
KOPN-8 = system: KOPN-8
MHH-CALL-3 = system: MHH-CALL-3
MN-60 = system: MN-60
MOLT-14 = system: MOLT-14
MOLT-16 = system: MOLT-16
NALM-6 = system: NALM-6
P30-OHKUBO = system: P30-OHKUBO
PEER = system: PEER
PF-382 = system: PF-382
SUP-B15 = system: SUP-B15
TANOUE = system: TANOUE
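Note: ALL cell lines in 384-well plates, five doses spanning 10,000-fold, each plate scaled between vehicle and 100 µmol/L benzalkonium chloride controls, sDSS an adapted area-under-curve metric.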

| SMILES | selective drug sensitivity score 380 | selective drug sensitivity score 697 | selective drug sensitivity score (ALL-PO) | selective drug sensitivity score (COG-LL-317) | selective drug sensitivity score (COG-LL-319h) | selective drug sensitivity score (COG-LL-355h) | selective drug sensitivity score (HPB-ALL) | selective drug sensitivity score (KARPAS-45) | selective drug sensitivity score (KASUMI-10) | selective drug sensitivity score (KOPN-8) | selective drug sensitivity score (MHH-CALL-3) | selective drug sensitivity score (MN-60) | selective drug sensitivity score (MOLT-14) | selective drug sensitivity score (MOLT-16) | selective drug sensitivity score (NALM-6) | selective drug sensitivity score (P30-OHKUBO) | selective drug sensitivity score (PEER) | selective drug sensitivity score (PF-382) | selective drug sensitivity score (SUP-B15) | selective drug sensitivity score (TANOUE) |
| --- | --- | --- | --- | --- | --- | --- | --- | --- | --- | --- | --- | --- | --- | --- | --- | --- | --- | --- | --- | --- |
| CC(=O)c1cc2c(o1)C(=O)c1ccccc1C2=O [Napabucasin] (top concentration 20000 nM) | -2.08 | -0.88 | 0.92 | -0.18 | -0.18 | -0.18 | -0.98 | 1.22 | 0.92 | 3.72 | -3.28 | -2.08 | -0.98 | 0.12 | -1.48 | 0.42 | 0.62 | -0.28 | 1.22 | -4.88 |
| CC1(C)CCC(c2ccc(Cl)cc2)=C(CN2CCN(c3ccc(C(=O)NS(=O)(=O)c4ccc(N[C@H](CCN5CCOCC5)CSc5ccccc5)c(S(=O)(=O)C(F)(F)F)c4)cc3)CC2)C1 [Navitoclax] (top concentration 10000 nM) | 26.1 | 13 | 23.6 | 20.5 | 22.1 | 28.9 | 17.8 | 22.8 | 26.4 | 23.2 | 29 | -8.58 | 12.7 | 12.2 | 11.7 | 16.8 | 12.2 | 13.7 | 27.5 | -8.58 |
| CC(=O)c1c(C)c2cnc(Nc3ccc(N4CCNCC4)cn3)nc2n(C2CCCC2)c1=O [Palbociclib] (top concentration 10000 nM) | -0.12 | 14.3 | 4.08 | 0.98 | 0.38 | 2.88 | 2.78 | 3.68 | 0.88 | 16.5 | 5.38 | -0.62 | 2.48 | 8.58 | 3.68 | 9.58 | 5.38 | 5.48 | 2.38 | -6.12 |
| COc1ccc(COc2cc3oc(=O)c4cc(C(C)O)ccc4c3cc2OC)cc1 (stereo not given) [Palomid-529] (top concentration 10000 nM) | 5.86 | 0.06 | 2.86 | 0.06 | 17.2 | -0.24 | 0.76 | 2.76 | -0.24 | 10.3 | -0.24 | -0.24 | 2.76 | 4.36 | -0.24 | -0.24 | 4.16 | 1.06 | 5.26 | 0.36 |
| FC(F)(F)c1ccc(CNc2ccc(Cc3c[nH]c4ncc(Cl)cc34)cn2)cn1 [Pexidartinib] (top concentration 10000 nM) | -2.22 | 3.18 | 6.68 | -0.52 | -2.22 | -1.92 | -1.92 | -0.02 | 8.78 | 0.68 | -2.22 | -1.52 | -2.02 | -0.72 | 0.18 | 4.48 | -0.32 | -1.22 | -0.22 | -2.22 |
| CO[C@H](C(=O)[C@@H](O)[C@@H](C)O)[C@@H]1Cc2cc3cc(O[C@H]4C[C@@H](O[C@H]5C[C@@H](O)[C@H](O)[C@@H](C)O5)[C@@H](O)[C@@H](C)O4)c(C)c(O)c3c(O)c2C(=O)[C@H]1O[C@H]1C[C@@H](O[C@H]2C[C@@H](O[C@H]3C[C@](C)(O)[C@H](O)[C@@H](C)O3)[C@H](O)[C@@H](C)O2)[C@H](O)[C@@H](C)O1 [Plicamycin] (top concentration 10000 nM) | 7.14 | -17.5 | -15.9 | -1.96 | 7.54 | -15.4 | 7.44 | -11.1 | -2.36 | -17.8 | 5.34 | 5.34 | -10.3 | -5.06 | 7.34 | -16.3 | -12.8 | -12.1 | -15.6 | -14.4 |
| Cn1cc(CNCC2CCN(c3ncc(C(=O)NO)cn3)CC2)c2ccccc21 [Quisinostat] (top concentration 1000 nM) | 6.68 | 8.68 | 5.98 | 7.18 | 12.3 | 6.38 | 6.88 | 8.18 | 7.38 | 10.5 | 17 | -2.02 | 6.98 | 6.28 | 1.78 | 7.18 | 2.88 | 2.08 | 10.1 | -7.62 |
| CC(C)(C)Cn1c(N)nc2ccc(-c3[nH]c(C(C)(C)C)nc3-c3ccc(F)cc3)nc21 [Ralimetinib] (top concentration 10000 nM) | -0.84 | 5.66 | 8.56 | 0.96 | 4.06 | 7.86 | 3.66 | 5.36 | 0.86 | 4.26 | -0.84 | -0.14 | 6.96 | 12.6 | -0.24 | 4.66 | 2.26 | 2.06 | 7.36 | -0.44 |
| O=C(CCCCCCNC(=O)c1cnc(N(c2ccccc2)c2ccccc2)nc1)NO [Rocilinostat] (top concentration 10000 nM) | 8.54 | 5.84 | 5.84 | 5.14 | 8.24 | 4.84 | 5.54 | 10 | 4.24 | 13.8 | 14.5 | 1.04 | 8.44 | 6.94 | 4.84 | 5.04 | 7.14 | 4.84 | 5.64 | -0.26 |
| CN1CCC(CNc2ccc3ncc(-c4cccc(OC(F)(F)F)c4)n3n2)CC1 [SGI-1776] (top concentration 10000 nM) | -2.38 | -0.68 | 7.02 | 0.02 | -1.28 | 1.72 | -4.08 | -2.08 | 4.82 | -0.78 | -3.98 | -3.78 | 0.32 | -3.28 | -3.08 | 0.12 | -0.58 | -2.68 | -0.88 | -8.18 |
| O=C(/C=C\n1cnc(-c2cc(C(F)(F)F)cc(C(F)(F)F)c2)n1)NNc1cnccn1 [Selinexor] (top concentration 10000 nM) | 18.1 | 12.4 | 13.5 | 17.4 | 9.68 | 11.9 | 3.78 | 10.9 | 3.78 | 17.1 | 24.5 | 3.58 | 16.7 | 13.9 | 13 | 9.28 | 10.2 | 9.78 | 16.3 | -7.02 |
| Cn1cnc2c(F)c(Nc3ccc(Br)cc3Cl)c(C(=O)NOCCO)cc21 [Selumetinib] (top concentration 10000 nM) | 9.6 | -1 | -2.8 | -3.5 | -1.8 | 4.7 | -4.1 | -3.8 | -3.5 | 7 | 15.4 | -4.1 | 7.2 | -3.4 | 5 | -2.1 | -1.6 | -1.8 | 5.4 | -4.1 |
| COCC[n+]1c2c(n(Cc3cnccn3)c1C)C(=O)c1ccccc1C2=O [Sepantronium_bromide] (top concentration 10000 nM) | 22 | 22.8 | 4.44 | 13.3 | 4.64 | 15.5 | 6.34 | 11 | 18.6 | 22.8 | 22.3 | 21.2 | 12.5 | 12.7 | 22.3 | 22.8 | 15.1 | 14.1 | 22.3 | 14.7 |
| O=C(O)c1ccc2c(c1)nc(Nc1cccc(Cl)c1)c1ccncc12 [Silmitasertib] (top concentration 10000 nM) | 7.7 | 3.5 | 1.9 | 4 | 15.8 | 6.3 | 1.9 | 4.1 | 3.8 | 11.4 | -1.4 | 3.7 | 4.1 | 4.8 | 4 | 1.8 | 3.6 | 2 | 3 | -0.3 |
| CO[C@H]1C[C@@H]2CC[C@@H](C)[C@@](O)(O2)C(=O)C(=O)N2CCCC[C@H]2C(=O)O[C@H]([C@H](C)C[C@@H]2CC[C@@H](O)[C@H](OC)C2)CC(=O)[C@H](C)/C=C(\C)[C@@H](O)[C@@H](OC)C(=O)[C@H](C)C[C@H](C)/C=C/C=C/C=C/1C [Sirolimus] (top concentration 100 nM) | 17.4 | 6.34 | 0.14 | 0.74 | 5.94 | -0.66 | -2.46 | -0.16 | -3.76 | 17.9 | 5.74 | 0.44 | -2.96 | 5.04 | -2.86 | 1.34 | 3.74 | 1.84 | 5.04 | -3.76 |
| COCCNCc1ccc(-c2cc3nccc(Oc4ccc(NC(=O)C5(C(=O)Nc6ccc(F)cc6)CC5)cc4F)c3s2)nc1 [Sitravatinib] (top concentration 2500 nM) | 2.18 | 1.58 | 14.8 | -0.42 | -0.32 | 2.58 | -0.42 | 3.78 | 20 | 8.08 | -0.42 | 0.78 | 1.08 | -0.42 | -0.12 | 5.78 | 7.38 | 1.08 | 8.68 | -0.42 |
| CCN(CC)CCNC(=O)c1c(C)[nH]c(/C=C2\C(=O)Nc3ccc(F)cc32)c1C [Sunitinib] (top concentration 1000 nM) | -1.44 | 1.16 | 14.2 | -1.44 | -1.34 | 5.66 | -1.44 | -0.64 | 10.4 | -1.44 | -1.44 | -1.44 | 0.76 | -1.44 | -1.44 | 0.76 | -0.24 | -1.44 | 6.86 | -1.44 |
